# Laboratory results: ChEMBL document CHEMBL1833860 (Bioorg Med Chem Lett, 2011)
# Key:
# [1] = Dissociation constant, pKa of the compound; assay type: physicochemical
# [2] = Volume of distribution at steady state in rat at 1 mg/kg, iv and 3 mg/kg, po; assay type: ADME, organism-based; conditions: in vivo, read-out: Vdss
# [3] = Half life in rat at 1 mg/kg, iv and 3 mg/kg, po; assay type: ADME, organism-based; conditions: in vivo
# [4] = Oral bioavailability in rat at 3 mg/kg; assay type: ADME, organism-based; conditions: in vivo
# [5] = Clearance in rat at 1 mg/kg, iv and 3 mg/kg, po; assay type: ADME, organism-based; conditions: in vivo
# [6] = Distribution coefficient, log D of compound; assay type: physicochemical; conditions: octanol/water
# [7] = Aqueous solubility of compound in fed state simulated intestinal fluid at pH 6.5; assay type: physicochemical
pKa [1],Vd [2] [L/kg],half-life [3] [min],bioavailability [4] [%],clearance [5] [mL/min/kg],logD [6],solubility [7] [µg/mL],Compound
9.4,–,–,–,–,–,–,Cc1cccc(Nc2nc(N[C@@H]3CCCC[C@@H]3N)ncc2C(N)=O)c1
8.1,4,114,14,32,–,–,Cc1cccc(Nc2nc(N[C@@H]3CCOC[C@@H]3N)ncc2C(N)=O)c1
–,4.1,252,30,16,0.9,420,Cc1ccc(Nc2nc(N[C@@H]3CCOC[C@@H]3N)ncc2C(N)=O)cc1
–,3.9,138,10,45,–,–,COc1ccc(Nc2nc(N[C@@H]3CCOC[C@@H]3N)ncc2C(N)=O)cc1
7.9,–,–,–,–,–,–,Cc1cccc(Nc2nc(N[C@@H]3CC(F)(F)CC[C@@H]3N)ncc2C(N)=O)c1 (racemic)
